Laboratory results from patent publication US20220160716A1 (SORBONNE UNIVERSITE, priority 2019, published 2022).

Experiments:
[1] = molecular target: T1, CDK5/p25 (Homo sapiens, UniProt Q00535); assay type: biochemical; conditions: activator p25; read-out: IC50 of protein kinases, CDK5/p25
T1 construct: made in house

[2] = molecular target: T2, CDK9/T (Homo sapiens, UniProt P50750); assay: Protein kinase catalytic activity assay, CDK9/cyclin T; assay type: biochemical; conditions: activator cyclin T; read-out: IC50 of protein kinases, CDK9/T
T2 construct: made in house
T2 sequence (P50750 whole entry, species assumed): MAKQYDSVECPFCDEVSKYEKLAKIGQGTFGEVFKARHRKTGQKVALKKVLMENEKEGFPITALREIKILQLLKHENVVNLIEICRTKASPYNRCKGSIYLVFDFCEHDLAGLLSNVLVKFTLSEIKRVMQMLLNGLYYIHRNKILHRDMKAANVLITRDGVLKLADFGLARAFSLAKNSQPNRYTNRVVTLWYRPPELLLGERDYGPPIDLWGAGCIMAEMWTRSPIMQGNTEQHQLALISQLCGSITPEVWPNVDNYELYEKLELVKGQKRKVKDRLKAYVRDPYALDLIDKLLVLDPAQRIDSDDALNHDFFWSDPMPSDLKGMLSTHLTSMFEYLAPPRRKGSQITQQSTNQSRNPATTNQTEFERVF
T2 sequence (O60563 whole entry partner, species assumed): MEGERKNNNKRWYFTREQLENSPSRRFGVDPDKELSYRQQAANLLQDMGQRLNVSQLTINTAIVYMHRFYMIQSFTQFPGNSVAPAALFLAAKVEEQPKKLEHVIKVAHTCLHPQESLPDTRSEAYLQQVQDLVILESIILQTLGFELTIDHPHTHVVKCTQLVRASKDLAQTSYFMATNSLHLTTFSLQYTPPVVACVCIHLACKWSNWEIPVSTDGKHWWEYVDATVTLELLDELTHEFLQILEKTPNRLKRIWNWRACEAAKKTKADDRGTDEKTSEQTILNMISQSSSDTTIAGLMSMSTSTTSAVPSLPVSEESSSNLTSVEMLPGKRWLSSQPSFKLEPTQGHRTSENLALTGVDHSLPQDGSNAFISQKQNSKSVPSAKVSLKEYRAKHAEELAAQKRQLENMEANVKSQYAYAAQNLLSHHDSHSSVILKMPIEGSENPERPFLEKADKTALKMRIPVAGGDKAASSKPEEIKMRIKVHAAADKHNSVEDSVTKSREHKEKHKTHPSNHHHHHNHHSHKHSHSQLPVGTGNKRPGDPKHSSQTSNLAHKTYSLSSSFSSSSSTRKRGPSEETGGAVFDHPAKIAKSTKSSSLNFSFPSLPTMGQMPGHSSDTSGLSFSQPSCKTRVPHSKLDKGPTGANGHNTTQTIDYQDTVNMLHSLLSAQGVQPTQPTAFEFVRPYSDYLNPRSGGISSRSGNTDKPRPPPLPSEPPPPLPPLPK

[3] = molecular target: CK1; assay: Protein kinase catalytic activity assay, CK1; assay type: biochemical; conditions: read-out: IC50 of protein kinases, CK1
[4] = molecular target: GSK3 (Homo sapiens, UniProt P49841); assay: Protein kinase catalytic activity assay, GSK3; assay type: biochemical; conditions: read-out: IC50 of protein kinases, GSK3
Chain of GSK3 (P49841 whole entry, canonical isoform): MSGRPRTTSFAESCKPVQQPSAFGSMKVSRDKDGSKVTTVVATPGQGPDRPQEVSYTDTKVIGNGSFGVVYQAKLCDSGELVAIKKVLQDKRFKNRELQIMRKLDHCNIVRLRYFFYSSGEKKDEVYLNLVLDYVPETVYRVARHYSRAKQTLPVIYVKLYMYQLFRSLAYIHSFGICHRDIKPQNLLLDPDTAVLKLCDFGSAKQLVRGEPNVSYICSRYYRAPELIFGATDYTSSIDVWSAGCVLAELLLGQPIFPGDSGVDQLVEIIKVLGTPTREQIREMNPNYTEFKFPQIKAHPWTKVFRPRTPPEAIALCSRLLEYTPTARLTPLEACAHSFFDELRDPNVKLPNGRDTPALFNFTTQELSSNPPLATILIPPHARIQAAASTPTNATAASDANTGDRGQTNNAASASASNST

[5] = molecular target: T3, ABCB4-I541F (Homo sapiens, UniProt P21439, I541F); assay: Canalicular localisation of ABCB4-I541F by indirect immunofluorescence in HepG2 cells; assay type: cell-based; parameters: The subcloning of wild type (WT) ABCB4, isoform A (NM_000443.3), into pcDNA3 vector has been described; expressed in transfected cells; host or cells: HepG2 (immunofluorescence); conditions: 16 hours
T3 sequence (P21439 1-1279 isoform P21439-2 I541F): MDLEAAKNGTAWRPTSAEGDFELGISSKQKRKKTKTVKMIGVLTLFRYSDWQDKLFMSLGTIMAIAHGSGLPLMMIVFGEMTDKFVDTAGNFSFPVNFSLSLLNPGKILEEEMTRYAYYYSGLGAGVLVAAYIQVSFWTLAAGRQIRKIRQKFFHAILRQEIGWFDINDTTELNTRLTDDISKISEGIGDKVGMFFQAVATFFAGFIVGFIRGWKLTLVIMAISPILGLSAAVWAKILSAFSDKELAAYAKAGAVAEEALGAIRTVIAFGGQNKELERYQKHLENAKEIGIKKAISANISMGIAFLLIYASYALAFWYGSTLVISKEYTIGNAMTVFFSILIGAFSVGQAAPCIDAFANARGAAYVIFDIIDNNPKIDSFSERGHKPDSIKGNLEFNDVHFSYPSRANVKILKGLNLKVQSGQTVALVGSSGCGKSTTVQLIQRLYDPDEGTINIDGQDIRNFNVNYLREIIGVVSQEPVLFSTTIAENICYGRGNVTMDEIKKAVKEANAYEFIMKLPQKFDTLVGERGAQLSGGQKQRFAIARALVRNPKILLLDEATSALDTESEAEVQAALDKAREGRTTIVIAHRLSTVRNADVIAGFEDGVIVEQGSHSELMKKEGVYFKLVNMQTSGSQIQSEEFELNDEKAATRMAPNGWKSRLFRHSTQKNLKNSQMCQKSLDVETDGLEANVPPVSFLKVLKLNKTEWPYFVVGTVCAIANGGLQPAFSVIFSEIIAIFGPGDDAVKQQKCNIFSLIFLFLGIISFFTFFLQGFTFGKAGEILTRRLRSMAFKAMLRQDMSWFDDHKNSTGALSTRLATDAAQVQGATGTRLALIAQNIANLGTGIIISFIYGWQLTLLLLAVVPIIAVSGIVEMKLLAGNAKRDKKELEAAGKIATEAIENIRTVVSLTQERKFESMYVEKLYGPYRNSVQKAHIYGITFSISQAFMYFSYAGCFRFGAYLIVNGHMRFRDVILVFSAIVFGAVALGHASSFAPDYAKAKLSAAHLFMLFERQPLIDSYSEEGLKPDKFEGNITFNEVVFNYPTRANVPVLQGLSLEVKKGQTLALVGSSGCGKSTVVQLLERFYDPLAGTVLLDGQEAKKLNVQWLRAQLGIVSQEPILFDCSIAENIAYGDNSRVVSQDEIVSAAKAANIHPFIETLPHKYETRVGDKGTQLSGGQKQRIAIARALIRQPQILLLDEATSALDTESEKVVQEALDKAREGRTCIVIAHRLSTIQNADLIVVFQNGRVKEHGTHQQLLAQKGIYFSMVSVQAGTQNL
Description: For indirect immunofluorescence, HepG2 cells were grown on glass coverslips and after transfection and treatments, they were fixed and permeabilized during 1 min at −20° C. in ice-cold methanol. Then ABCB4 and ABCC2 were immunolabelled using the mouse monoclonal P3II-26 (IgG2b) and M2I-4 (IgG1) antibodies (Enzo Life Sciences), respectively. […] For each experiment, all images were acquired with constant settings (acquisition time and correction of signal intensities).

[6] = molecular target: T3, ABCB4-I541F; assay: ABCB4-mediated phosphatidylcholine secretion, HEK cells expressing ABCB4-I541F; assay type: cell-based; parameters: The subcloning of wild type (WT) ABCB4, isoform A (NM_000443.3), into pcDNA3 vector has been described; expressed in transfected cells; host or cells: HEK-293 (immunoblot, PC secretion); conditions: 25 μM, maximal activity = cells expressing ABCB4-WT, vehicle 7.1±0.8%
Description: (§1) Cyclosporin A (CsA) was from Santa Cruz Biotechnologies (Dallas, Tex.). […] Each compound was solubilized in dimethylsulfoxide (DMSO) as 1000× concentrated stock solutions in order to treat cells with 5 μM to 100 μM final concentrations, using DMSO as control vehicle at the same dilution (0.1% DMSO for all conditions). The cells were treated 24 hours post-transfection with these drugs during 16 hours, except for the viability assays for which cells were treated during three days. After drug treatment, cells were used for immunoanalyses, cell viability assays or PC secretion assays.
(§2) HEK cells were seeded in 0.01% poly-L-lysine (Sigma) pre-coated 6-well plates of 10 cm^2 area per well (1.3×10^6 cells per well). After transient transfection of the empty vector (control), plasmids encoding ABCB4-WT or its variants, cells were incubated during 24 hours at 37° C. in serum-free medium supplemented with 0.5 mM sodium taurocholate (Sigma) and 0.02% fatty acid-free bovine serum albumin (Sigma). Then, the secreted PC was quantified from the collected media using a fluoro-enzymatic assay previously described (12). Each condition was analysed in triplicate, after background subtraction, and results were normalized to the expression levels of ABCB4 determined by immunoblots of the corresponding cell lysates.

[7] = molecular target: T4, ABCB4-I490T (Homo sapiens, UniProt P21439, I490T); assay: Maturation of ABCB4-I490T by immunoblot in HEK cells; assay type: cell-based; parameters: The subcloning of wild type (WT) ABCB4, isoform A (NM_000443.3), into pcDNA3 vector has been described; expressed in transfected cells; host or cells: HEK-293 (immunoblot, PC secretion); conditions: 5 to 25 μM
T4 sequence (P21439 1-1279 isoform P21439-2 I490T): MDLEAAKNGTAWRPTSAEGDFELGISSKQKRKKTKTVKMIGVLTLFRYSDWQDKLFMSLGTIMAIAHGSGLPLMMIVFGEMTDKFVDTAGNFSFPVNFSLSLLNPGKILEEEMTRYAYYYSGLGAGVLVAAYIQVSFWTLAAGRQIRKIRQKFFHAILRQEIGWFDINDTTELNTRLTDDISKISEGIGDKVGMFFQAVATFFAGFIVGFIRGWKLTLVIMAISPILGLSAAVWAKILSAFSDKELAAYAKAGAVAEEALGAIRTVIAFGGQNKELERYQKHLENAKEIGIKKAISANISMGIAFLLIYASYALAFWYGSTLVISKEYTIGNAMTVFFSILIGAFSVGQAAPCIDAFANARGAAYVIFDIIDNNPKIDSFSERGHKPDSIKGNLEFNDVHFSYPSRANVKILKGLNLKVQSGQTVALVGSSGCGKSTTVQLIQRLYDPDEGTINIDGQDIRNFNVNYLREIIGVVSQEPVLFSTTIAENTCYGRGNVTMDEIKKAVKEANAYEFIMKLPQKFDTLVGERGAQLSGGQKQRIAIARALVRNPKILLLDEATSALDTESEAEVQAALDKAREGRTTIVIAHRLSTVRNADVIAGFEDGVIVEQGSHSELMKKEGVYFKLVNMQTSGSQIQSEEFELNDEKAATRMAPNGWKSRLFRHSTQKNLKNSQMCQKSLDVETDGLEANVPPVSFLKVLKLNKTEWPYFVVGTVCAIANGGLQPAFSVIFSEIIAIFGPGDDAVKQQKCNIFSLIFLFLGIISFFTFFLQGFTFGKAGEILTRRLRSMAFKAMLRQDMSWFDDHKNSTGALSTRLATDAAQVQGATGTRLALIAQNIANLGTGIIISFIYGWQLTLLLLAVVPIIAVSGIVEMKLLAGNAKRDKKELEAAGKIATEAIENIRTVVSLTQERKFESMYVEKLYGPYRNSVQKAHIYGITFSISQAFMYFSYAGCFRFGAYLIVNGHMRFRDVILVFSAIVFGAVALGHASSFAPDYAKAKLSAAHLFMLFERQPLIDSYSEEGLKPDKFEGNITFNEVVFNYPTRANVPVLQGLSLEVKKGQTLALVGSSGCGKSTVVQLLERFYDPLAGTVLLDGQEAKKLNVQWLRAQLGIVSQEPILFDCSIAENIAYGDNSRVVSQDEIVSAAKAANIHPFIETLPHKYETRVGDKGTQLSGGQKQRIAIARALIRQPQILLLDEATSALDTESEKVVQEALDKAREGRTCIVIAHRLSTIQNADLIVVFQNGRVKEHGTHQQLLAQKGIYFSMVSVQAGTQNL
Description: Western blots and indirect immunofluorescence were performed as previously described (2, 12). […] Saturated membranes were incubated with mouse monoclonal anti-ABCB4 (clone P3II-26; Enzo Life Sciences, Villeurbanne, France) or anti-α-tubulin (clone 1E4C11; ProteinTech, Manchester, United Kingdom) antibodies and then with peroxidase conjugated anti-mouse secondary antibodies (Sigma). Signals were detected with ECL prime western blotting detection reagent (GE Healthcare, Velizy-Villacoublay, France) and quantified in the linear range of detection using ImageJ 1.50i software (U.S. National Institutes of Health, Bethesda, Md.).

[8] = molecular target: T4, ABCB4-I490T; assay: ABCB4-mediated phosphatidylcholine secretion, HEK cells expressing ABCB4-I490T; assay type: cell-based; parameters: The subcloning of wild type (WT) ABCB4, isoform A (NM_000443.3), into pcDNA3 vector has been described; expressed in transfected cells; host or cells: HEK-293 (immunoblot, PC secretion); conditions: 25 μM
Description: as §1, §2

T1 sequence (Q00535 whole entry, species assumed): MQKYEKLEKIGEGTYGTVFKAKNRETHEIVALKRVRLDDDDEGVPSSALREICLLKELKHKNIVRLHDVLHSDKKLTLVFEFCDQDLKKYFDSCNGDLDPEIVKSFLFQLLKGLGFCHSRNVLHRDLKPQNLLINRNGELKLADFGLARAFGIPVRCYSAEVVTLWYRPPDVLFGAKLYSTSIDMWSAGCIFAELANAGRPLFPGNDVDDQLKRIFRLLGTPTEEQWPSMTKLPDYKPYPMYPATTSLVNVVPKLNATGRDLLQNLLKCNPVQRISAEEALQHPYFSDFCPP
T1 sequence (Q15078 99-307 partner limits assumed, species assumed): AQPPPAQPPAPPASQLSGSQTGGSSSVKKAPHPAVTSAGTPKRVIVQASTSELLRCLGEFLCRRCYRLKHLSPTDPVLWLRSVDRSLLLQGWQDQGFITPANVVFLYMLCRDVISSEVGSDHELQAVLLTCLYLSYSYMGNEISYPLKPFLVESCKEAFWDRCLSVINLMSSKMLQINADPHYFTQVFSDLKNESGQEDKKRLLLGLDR

| SMILES | IC50 [1] [µM] | IC50 [2] [µM] | IC50 [3] [µM] | IC50 [4] [µM] | relocalisation of ABCB4-I541F at bile canaliculi ([5]; 25 μM) | relocalisation of ABCB4-I541F at bile canaliculi ([5]; 100 μM) | PC secretion activity of ABCB4-I541F (residual activity) [6] [%] | rescue of the maturation of ABCB4-I490T [7] | PC secretion residual activity of ABCB4-I490T [8] |
| --- | --- | --- | --- | --- | --- | --- | --- | --- | --- |
| CC[C@@H](Nc1nc(NCc2cccc(F)c2)c2ncn(C3CCCC3)c2n1)C(=O)O [MRT2-235] | 8.3 | 7 | 7 | > 10 | partial relocalisation of ABCB4-I541F at bile canaliculi | partial relocalisation of ABCB4-I541F at bile canaliculi | 19.0±3.4 | dose-dependent rescue of the maturation | significant increase of the residual activity |
| CC[C@@H](Nc1nc(NCc2cccc(Cl)c2)c2ncn(C3CCCC3)c2n1)C(=O)O [MRT2-237] | 7.7 | 9 | 3.33 | > 10 | partial relocalisation of ABCB4-I541F at bile canaliculi | partial relocalisation of ABCB4-I541F at bile canaliculi | 13.0±3.5 | dose-dependent rescue of the maturation | significant increase of the residual activity |
| CC[C@@H](Nc1nc(NCc2ccc(Cl)c(F)c2)c2ncn(C3CCCC3)c2n1)C(=O)O [MRT2-243] | 6.3 | 5 | 6.1 | > 10 | partial relocalisation of ABCB4-I541F at bile canaliculi | partial relocalisation of ABCB4-I541F at bile canaliculi | 22.5±6.2 | dose-dependent rescue of the maturation | significant increase of the residual activity |
